Measurements: US20020132812A1, “Oral hypoglycaemic agents” (priority 2000, published 2002)
Where “and” joins values, the source holds several entries; their conditions need not be identical. Equal entries are not always repeated.

How the values were obtained:
Format in all cases: cell-based
mouse pancreatic β-cells = test: Ca2+-evoked exocytosis (cell capacitance, whole-cell patch clamp) in single mouse pancreatic β-cells; conditions: 100 μM compound in pipette solution, free Ca2+ 0.2 μM
Text: (§1) Pancreatic islets were isolated from fed NMRI mice (15-23 g). Briefly, the mice were stunned by a blow against the head and killed by cervical dislocation. The pancreas was quickly removed and pancreatic islets were isolated by collagenase (Sigma) digestion (Gromada et al. J. Physiol., Vol. 518 (3) pp. 745-759, 1999). For insulin release experiments, the islets were kept in RPMI-1640 tissue culture medium overnight before use. […]
(§2) Patch pipettes were drawn from borosilicate glass capillaries. […] The currents were recorded using an Axopatch 200B patch clamp amplifier (Axon Instruments, Foster City, Calif., USA), digitized and stored in a computer using the Digidata AD-converter and the software pClamp (version 6.0; Axon Instruments). Alternatively, KATP-currents were recorded using an EPC-9 patch clamp amplifier and the Pulse software (v. 8.01; HEKA Elektronik, Lamprecht/Pfalz, Germany). Exocytosis was monitored as increases in cell membrane capacitance (Neher & Marty Proc. Natl. Acad, Sci. USA, Vol. 79, pp. 6712-6716,1982) using the standard whole-cell configuration of the patch-clamp technique and an EPC-9 patch-clamp amplifier and the Pulse software (v. 8.01; HEKA Elektronik). […]

rat pancreatic α-cells = test: Ca2+-dependent exocytosis (cell capacitance) in single rat pancreatic α-cells
Procedure: Male Lewis rats (250-300 g; Møllegaard, Lille Skensved, Denmark) were anaesthetised by pentobarbital (100 mg/kg i.p.). After removal of the pancreas, islets were isolated by collagenase digestion and dispersed into single cells using dispase (Sigma). The α-cells were then separated by fluorescence-activated cell sorting as described elsewhere (Josefsen et al. J. Endocrinol., Vol.149, pp.145-154, 1996). Based on the hormone contents and their glucose sensitivities, we estimate that the preparation contains >80% α-cells and <3% β-cells. […]
as §2

[1] = molecular target: T1, ATP-sensitive K+-channels (KATP-channels) (Mus musculus, UniProt Q61743); test: Whole-cell ATP-sensitive K+ current (KATP-channel activity) in single mouse β-cells; conditions: 100 μM compound; six experiments; cells dialysed with 0.3 mM ATP and 0.3 mM ADP
T1 construct: Pancreatic islets were isolated from fed NMRI mice (15-23 g); endogenous in cells; host or cells: single beta-cells dispersed from pancreatic islets of NMRI mice
T1 sequence (Q61743 whole entry): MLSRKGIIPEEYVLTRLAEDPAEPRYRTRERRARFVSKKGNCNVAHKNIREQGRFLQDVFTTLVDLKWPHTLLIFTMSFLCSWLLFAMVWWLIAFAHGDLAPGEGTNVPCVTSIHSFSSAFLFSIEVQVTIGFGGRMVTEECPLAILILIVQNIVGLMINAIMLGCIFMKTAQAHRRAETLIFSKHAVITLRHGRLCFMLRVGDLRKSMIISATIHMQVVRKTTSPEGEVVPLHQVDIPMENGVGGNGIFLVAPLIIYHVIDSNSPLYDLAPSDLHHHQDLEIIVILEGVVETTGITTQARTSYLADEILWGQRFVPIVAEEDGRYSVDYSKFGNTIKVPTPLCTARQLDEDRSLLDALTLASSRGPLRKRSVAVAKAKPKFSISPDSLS
T1 sequence (B2RUS7 1-1588 partner): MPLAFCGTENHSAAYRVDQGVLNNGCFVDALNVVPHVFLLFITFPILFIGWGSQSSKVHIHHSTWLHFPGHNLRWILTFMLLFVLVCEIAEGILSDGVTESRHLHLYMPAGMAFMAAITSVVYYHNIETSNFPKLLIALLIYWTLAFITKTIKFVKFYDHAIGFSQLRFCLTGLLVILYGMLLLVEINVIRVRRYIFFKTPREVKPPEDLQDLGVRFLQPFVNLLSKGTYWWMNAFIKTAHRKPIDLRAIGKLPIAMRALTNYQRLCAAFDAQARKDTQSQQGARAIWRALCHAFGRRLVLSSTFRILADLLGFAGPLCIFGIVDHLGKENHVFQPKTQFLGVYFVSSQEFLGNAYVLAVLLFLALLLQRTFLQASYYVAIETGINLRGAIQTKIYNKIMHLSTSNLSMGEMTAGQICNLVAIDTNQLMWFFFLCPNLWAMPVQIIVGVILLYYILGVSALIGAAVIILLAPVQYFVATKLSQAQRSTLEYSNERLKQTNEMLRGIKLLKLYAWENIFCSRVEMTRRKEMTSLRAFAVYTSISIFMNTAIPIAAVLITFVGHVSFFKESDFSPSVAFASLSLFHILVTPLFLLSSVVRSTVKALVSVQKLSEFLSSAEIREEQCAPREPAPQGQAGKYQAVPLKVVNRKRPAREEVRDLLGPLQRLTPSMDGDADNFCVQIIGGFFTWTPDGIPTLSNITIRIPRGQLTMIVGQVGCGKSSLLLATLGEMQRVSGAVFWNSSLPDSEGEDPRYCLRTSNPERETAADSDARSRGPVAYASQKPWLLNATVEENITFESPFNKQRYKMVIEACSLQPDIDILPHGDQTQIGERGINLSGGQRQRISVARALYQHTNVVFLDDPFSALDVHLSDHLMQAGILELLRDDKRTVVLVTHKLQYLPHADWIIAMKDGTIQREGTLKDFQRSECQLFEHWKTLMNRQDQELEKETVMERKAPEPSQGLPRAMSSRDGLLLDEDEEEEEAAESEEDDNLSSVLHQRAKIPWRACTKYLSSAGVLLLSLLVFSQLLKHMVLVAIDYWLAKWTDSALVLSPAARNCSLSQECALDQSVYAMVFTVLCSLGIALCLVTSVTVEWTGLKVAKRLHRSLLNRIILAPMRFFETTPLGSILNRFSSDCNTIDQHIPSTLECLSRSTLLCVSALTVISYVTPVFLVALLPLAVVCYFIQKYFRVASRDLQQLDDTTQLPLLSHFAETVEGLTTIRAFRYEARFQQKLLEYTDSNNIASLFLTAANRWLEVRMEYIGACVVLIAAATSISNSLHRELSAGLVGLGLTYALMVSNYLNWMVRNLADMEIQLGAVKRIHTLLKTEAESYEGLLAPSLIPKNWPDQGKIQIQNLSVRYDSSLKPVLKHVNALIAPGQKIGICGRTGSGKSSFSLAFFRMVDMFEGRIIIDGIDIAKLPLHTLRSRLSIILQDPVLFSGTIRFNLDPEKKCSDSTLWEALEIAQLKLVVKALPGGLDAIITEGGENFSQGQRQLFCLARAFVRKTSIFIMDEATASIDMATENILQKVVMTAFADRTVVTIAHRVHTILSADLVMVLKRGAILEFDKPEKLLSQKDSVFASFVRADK
Text: as §1, §2

whole-cell KATP current / channel activity, % of prestimulatory level [1]: 90±4% and 90+4%
Structure (SMILES): COc1cccc(C(CC2=NCCN2)c2ccccn2)c1 (single isomer, unassigned; (-)) [compound (Ex 2), (−)-2-(2-(4,5-Dihydro-1H-imidazol-2-yl)-1-(3-methoxyphenyl)ethyl)pyridine]
effect on Ca2+-evoked exocytosis (in words) (mouse pancreatic β-cells): strong stimulation of exocytosis | rate of exocytosis (ΔCm/Δt) measured over the first 60 s after establishment of the whole-cell configuration (mouse pancreatic β-cells; control 5.0±0.3 fF/s, P<0.025): 9.4±1.7 fF/s | rate of exocytosis (ΔCm/Δt) measured over the first 60 s after establishment of the whole-cell configuration (rat pancreatic α-cells; 100 μM compound in pipette solution, free Ca2+ 2 μM, control 16.8±2.5 fF/s, n=5): 4.6±0.7 fF/s | effect on Ca2+-dependent exocytosis (in words) (rat pancreatic α-cells; 0.1 mM compound, Ca2+ 2 μM): strong inhibition of the exocytotic response
